Laboratory results from patent US20260317314A1, “NITROGEN-CONTAINING HETEROCYCLIC COMPOUND AND USE THEREOF” (JIANGSU DEYUAN PHARMACEUTICAL CO.,LTD., priority 2023, published 2026).

Experiments:
[1] = In vivo pharmacokinetic study in cynomolgus monkeys; parameters: species or system cynomolgus monkey; conditions: male cynomolgus monkeys
[2] = Plasma protein binding rate test, SD rat (equilibrium dialysis); format: in vitro ADME; conditions: 37° C., read-out: Plasma protein binding rate (%) in SD rats (converted)
Text: (§1) The sample was thoroughly mixed.

plasma protein [3] = assay: Plasma protein binding rate test, cynomolgus monkey (equilibrium dialysis); format: in vitro ADME; conditions: 37° C., 4 hours
Text: as §1

MDR1-MDCKII cells = assay: Permeability test in MDR1-MDCKII monolayer cell model; format: in vitro ADME; conditions: 2 μM, pH 7.40, 2.5 hours, 37±1° C.
Experimental: Experimental objective: The permeability and efflux ratio of the compound of the present disclosure were determined using the MDR1-MDCKII monolayer cell model to assess its membrane permeability and potential for P-gp-mediated efflux transport.
Experimental protocol: MDR1-MDCKII cells (obtained from the Netherlands Cancer Institute) were seeded in 96-well plates (obtained from Corning) at a cell density of 3.33×10^5 cells/mL and cultured for 4 to 7 days to form confluent cell monolayers. Hank's balanced salt solution containing 10 mM HEPES (pH 7.40) was used as the transport buffer. The test compound was evaluated for bidirectional transport at a concentration of 2 μM, with the DMSO concentration in the incubation system maintained below 1%. After adding the samples, the cell plate was incubated at 37±1° C., 5% CO2, and saturated humidity for 2.5 hours. All samples were quantitatively analyzed using the LC-MS/MS method. The apparent permeability coefficient (Papp, cm/s) and efflux ratio (ER) were calculated using the following formula. Apparent permeability coefficient (Papp, cm/s) was calculated using the following formula: Papp=(dCr/dt)×Vr/(A×C0). Herein, dCr/dt represents the cumulative concentration of the compound at the receiving end per unit time (μM/s); Vr is the volume of the solution at the receiving end (with solution volumes at the apical and basolateral ends being 0.075 mL and 0.250 mL, respectively); A is the relative surface area of the cell monolayer (0.143 cm^2); C0 is the initial concentration of the test substance at the dosing end (μM) or the peak area ratio of the reference substance. The efflux ratio was calculated using the following formula: ER=Papp(BA)/Papp(AB).

[4] = In vitro liver microsome metabolic stability study; format: in vitro ADME; conditions: human liver microsomes 0.5 mg/mL, compound 1 μM, 37° C., up to 60 minutes
Experimental: Stock solution: 10 mM in DMSO.
Only 54 μL of microsomal working solution, 6 μL of NADPH regeneration system working solution, and 180 μL of stop solution were added to the blank plate.
LC-MS/MS analysis was performed.

plasma protein [5] = assay: Plasma protein binding rate test, human (equilibrium dialysis); format: in vitro ADME; conditions: 37° C., 4 hours
Text: as §1

plasma protein [6] = assay: Plasma protein binding rate test, SD rat (equilibrium dialysis); format: in vitro ADME; conditions: 37° C., 4 hours
Text: as §1

[7] = In vivo pharmacokinetics study in rats; parameters: species or system SD rat; conditions: male SD rats, oral 2 mg/kg

Row | T1/2 ([1]; oral 1 mg/kg) | AUC0-24 h ([1]; oral 1 mg/kg, plasma) | fraction unbound at 4 h [2] | Plasma protein binding rate (%) in cynomolgus monkeys (plasma protein [3]) | Apparent permeability coefficient (Papp (AB)) (MDR1-MDCKII cells) | Intrinsic hepatic clearance CLint(liver) [4] | Human plasma protein binding rate (%) (plasma protein [5]) | T1/2 [7] | AUC0-24 h ([7]; plasma) | SMILES | F ([1]; oral 3 mg/kg) | T1/2 ([1]; oral 3 mg/kg) | AUC0-24 h ([1]; oral 3 mg/kg, plasma) | Cmax ([1]; oral 3 mg/kg, plasma) | Plasma protein binding rate (%) in SD rats (plasma protein [6])
1 | 5.35 h | 7.586 µM·h | 0.08 | 79.5% | 24.6 10^-6 cm/s | <8.6 mL/min/kg | 80.9% | – | – | CCC(=O)N[C@@H]1CCCc2c(-c3cc(F)c4c(ccc(=O)n4C)c3)cncc21 (single isomer, unassigned) [Compound 018] | – | – | – | – | –
2 | 5.30 h | 7.292 µM·h | – | 78.1% | – | – | 82.7% | 1.34 h | 8.129 µM·h | CCC(=O)N[C@@H]1CCCc2c(-c3cc4c(s3)N(C)C(=O)CC4)cncc21 (single isomer, unassigned) [Compound 017] | – | – | – | – | 94.9%

Row | SMILES | T1/2 ([1]; oral 1 mg/kg) | AUC0-24 h ([1]; oral 1 mg/kg, plasma) | fraction unbound at 4 h [2] | Plasma protein binding rate (%) in cynomolgus monkeys (plasma protein [3]) | Apparent permeability coefficient (Papp (AB)) (MDR1-MDCKII cells) | Intrinsic hepatic clearance CLint(liver) [4] | Human plasma protein binding rate (%) (plasma protein [5]) | T1/2 [7] | AUC0-24 h ([7]; plasma) | F ([1]; oral 3 mg/kg) | T1/2 ([1]; oral 3 mg/kg) | AUC0-24 h ([1]; oral 3 mg/kg, plasma) | Cmax ([1]; oral 3 mg/kg, plasma) | Plasma protein binding rate (%) in SD rats (plasma protein [6])
3 | CCC(=O)NC1CCCc2c(-c3cc4ccc(=O)n(C)c4cc3F)cncc21 (single isomer, unassigned) [Compound 019] | – | – | – | 75.2% | – | – | 76.2% | – | – | 113% | 4.65 h | 23.864 µM·h | 3.79 µM | 87.1%
